Assay results reported in patent publication US9636409B2, “Enzyme and receptor modulation using covalent conjugates of alpha,alpha-disubstituted glycine esters” (GlaxoSmithKline Intellectual Property Development Limited, priority 2008, dated 2017).
Like-named read-outs stand apart in the source and are kept apart here.

Experiments:
[1] = test system: phosphorylation of MAPKAP-2 in U937 cells; assay: p38 MAP Kinase cellular assay: inhibition of phosphorylation of MAPKAP2 in U937 cells; format: cell-based; settings: for IC50: Homo sapiens, U-937
Protocol: p38 MAP Kinase Cellular Assay: Inhibition of Phosphorylation of MAPKAP2
U937 or HUT78 cells were plated in RPMI 1640, and were incubated at 37° C., 5% CO2 for 18 hours. 10 mM stocks of compounds were diluted media/0.1% DMSO to give a log or semi-log dilution series. The wells for ‘no treatment’ and ‘anisomycin’ were treated with 0.1% DMSO only. The cells were incubated at 37° C., 5% CO2 for a further 4 hours. Anisomycin was added to all wells except ‘no treatment’ at a final concentration of 10 μM. The cells were incubated at 37° C., 5% CO2 for 30 minutes before harvest. Plates were stood on ice whilst harvesting, and all following steps were carried out at 4° C. The cells were pelleted at 1000 rpm for 10 minutes at 4° C., the media aspirated, and the pellet washed with cold PBS. The pellets were lysed in 120 μl of SDS lysis buffer (62.5 mM Tris, pH 6.8, 2% SDS, 10% glycerol, 50 mM DTT, with protease inhibitors and phosphatase inhibitors added according to the manufacturers' recommendations). After 30 minutes on ice, the samples were sonicated for 5 seconds before centrifugation at 13,000 rpm 4° C. for 10 minutes to remove cell debris. 10 μl of the resulting gel samples were loaded per lane on NOVEX 4-12% Bis-Tris MOPS gels. Membranes from western transfer of gels were blotted with anti-phospho MAPKAP2, anti-phospho HSP27 and anti GAPDH according to the manufacturers' Instructions. Signal was visualised using HRP-Hnked anti-rabbit or anti-mouse antibodies, ECL reagent and ECL film. IC50 values for the various compounds were visualised from the resulting photographic images, using both band-shift and signal intensity.

[2] = target: T1, recombinant hCE-1 (Homo sapiens, UniProt P23141); assay: HCE-1 carboxylesterase assay; format: in vitro ADME; settings: result in words
T1 sequence (P23141 18-567): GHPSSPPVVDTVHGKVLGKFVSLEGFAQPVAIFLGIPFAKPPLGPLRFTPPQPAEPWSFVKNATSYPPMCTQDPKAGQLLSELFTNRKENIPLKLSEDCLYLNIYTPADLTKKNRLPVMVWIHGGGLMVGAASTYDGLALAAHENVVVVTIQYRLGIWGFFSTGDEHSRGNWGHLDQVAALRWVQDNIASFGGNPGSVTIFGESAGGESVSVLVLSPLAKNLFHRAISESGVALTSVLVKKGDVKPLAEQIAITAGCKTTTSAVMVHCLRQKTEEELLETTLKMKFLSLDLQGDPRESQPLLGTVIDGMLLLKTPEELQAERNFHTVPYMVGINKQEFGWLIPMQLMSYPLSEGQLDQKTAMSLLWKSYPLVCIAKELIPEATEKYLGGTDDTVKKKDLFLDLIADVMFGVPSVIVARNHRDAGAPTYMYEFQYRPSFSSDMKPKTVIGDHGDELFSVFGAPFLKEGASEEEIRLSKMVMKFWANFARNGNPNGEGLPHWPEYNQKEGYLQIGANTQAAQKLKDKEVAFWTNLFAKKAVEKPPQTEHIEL
Protocol: HCE-1 Carboxylesterase Assay
Hydrolysis of esters to the corresponding carboxylic acids by hCE-1 can be measured using the following procedure. At zero time, 100 μl of recombinant hCE-1 at a concentration of 6 μg/mL in phosphate assay buffer (K2PO4 100 mM, KCl 40 mM, pH 7.4) was added to an equal volume of assay buffer containing 5 μM ester substrate. After thorough mixing, triplicate samples were incubated for 0, 20 or 80 minutes at 37° C. At the appropriate time, hydrolysis was stopped by the addition of 600 μl of acetonitrile. For zero time samples, the acetonitrile was added prior to the enzyme. The samples were analysed for the ester and its corresponding carboxylic acid at room temperature by LCMS (Sciex API 3000, HP1100 binary pump, CTC PAL). Chromatography was based on a […] (75×2.1 mm) column and a mobile phase of 5-95% acetonitrile in water/0.1% formic add. Levels of the acid, the hydrolysis product, after 80 minutes are expressed in ng/mL.

[3] = test system: cell lysate from U937 cells; assay: Broken cell carboxylesterase assay (U937 cell extract); format: in vitro ADME; settings: ester 2.5 μM
Protocol: Broken Cell Carboxylesterase Assay
Any given compound of the present invention wherein ester conjugate according to the invention may be tested to determine whether it meets the requirement that it be hydrolysed by intracellular esterases, by testing in the following assay.
Preparation of Cell Extract
U937 or HCT 116 tumour cells (˜10^9) were washed in 4 volumes of Dulbeccos PBS (˜1 liter) and pelleted at 525 g for 10 min at 4° C. This was repeated twice and the final cell pellet was re-suspended in 35 mL of cold homogenising buffer (Trizma 10 mM, NaCl 130 mM, CaCl2 0.5 mM pH 7.0 at 25° C.). Homogenates were prepared by nitrogen cavitation (700 psi for 50 min at 4° C.). The homogenate was kept on ice and supplemented with a cocktail of inhibitors at final concentrations of: • Leupeptin 1 μM • Aprotinin 0.1 μM • E64 8 μM • Pepstatin 1.5 μM • Bestatin 162 μM • Chymostatin 33 μM
After clarification of the cell homogenate by centrifugation at 525 g for 10 min, the resulting supernatant was used as a source of esterase activity and was stored at −80° C. until required. […]
Hydrolysis of esters to the corresponding carboxylic acids can be measured using the cell extract, prepared as above. […] After centrifugation at 12000 g for 5 min, samples were analysed for the ester and its corresponding carboxylic acid at room temperature by LCMS (Sciex API 3000, HP1100 binary pump, CTC PAL). […]

`CC(C)(NCCc1ccc(-n2c(N)c(C(=O)c3ccc(F)cc3F)ccc2=O)cc1)C(=O)OC1CCCC1` [Example 1] was tested, and the IC50 ([1]; Table 1 (biology), U937 cells, read-out: Inhibition of phosphorylation of MAPKAP-2 in U937 cells (IC50)) was 10 nM, the IC50 ([1]; Table 2, U937 monocyte cell line, read-out: Inhibition of phosphorylation of MAPKAP-2 in U937 cells (IC50, nM) (monocyte cell line)) was 10 nM and the “Ratio cell IC50s to enzyme IC50” value ([1]; U937 MAPKAP-2 IC50 to P38 enzyme IC50) was 0.2. The “potency in monocytic versus non monocytic cell lines (MAPKAP-2 phosphorylation)” value ([1]; U937 versus HUT 78) was 100 times, the “potency in the p38 cellular assay compared with the parent compound” value ([1]; versus Compound I) was “significantly more potent than the parent compound” and the “hydrolysis by hCE-1” value [2] was “hydrolysed by hCE-1”. The “Cleavage by cell lysate from U937 cells” value [3] was 165 pg/mL/min.
